In general, EC50 refers to the midpoint of the concentration-response curve. As a reminder, the CC50 is the concentration giving 50% cytotoxicity.

This passage reports EC50 and CC50 results from patent US20190375708A1 (VenatoRx Pharmaceuticals, Inc., priority 2018, published 2019).

For data set [1], the system named is HBV replication in HepAD38 cells. As to the kind of experiment: Anti-HBV replication assay in HepAD38 cells (QPCR of extracellular HBV DNA). To be noted: Hepatitis B virus, 168 h, 7 days incubation, extracellular HBV DNA by QPCR, read-out: Anti-HBV EC50. Format: cell-based, HBV (genotype D, serotype ayw). In a few lines: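 Steps: seed HepAD38 overnight without tetracycline; refresh medium and add 1 log10 serial dilutions ([…]); incubate 7 days at 37 °C; quantify supernatant HBV DNA by QPCR; derive EC50 from a 4-parameter dose-response fit.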

Data set [2] is described as follows: In vitro cytotoxicity assay (MTT cell viability) in HepG2 cells. The format is cell-based, human. To be noted: human. In a few lines: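 Viability measured by MTT conversion, absorbance at 492 nm, as percent of vehicle-treated wells. Compounds spanned 30 μM to 1.0 nM in half-log steps over a 7-day exposure of parental HepG2 cells; CC50 derived by 4-parameter curve fit.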

In the case of `Cc1cc(NC(=O)c2c(C)c(C(=O)C(=O)N[C@@H]3CCCC[C@H]3O)n(C)c2C)ccc1F` [Example 136, N-(4-fluoro-3-methylphenyl)-5-(2-(((1R,2R)-2-hydroxycyclohexyl)amino)-2-oxoacetyl)-1,2,4-trimethyl-1H-pyrrole-3-carboxamide], the concentration for a half-maximal effect (EC50) in data set [1] is less than 0.05 µM. The CC50 at 7 days in data set [2] is greater than 30 µM.
The corresponding values for `Cc1cc(NC(=O)c2c(C)c(C(=O)C(=O)N[C@H]3CC[C@@H](O)CC3)n(C)c2C)ccc1F` [Example 137, N-(4-fluoro-3-methylphenyl)-5-(2-(((1s,4s)-4-hydroxycyclohexyl)amino)-2-oxoacetyl)-1,2,4-trimethyl-1H-pyrrole-3-carboxamide] are less than 0.05 µM and greater than 30 µM.
`CC[C@@H](CO)NC(=O)C(=O)c1c(C)c(C(=O)Nc2ccc(F)c(C)c2)c(C)n1C` [Example 139, (S)-N-(4-fluoro-3-methylphenyl)-5-(2-((1-hydroxybutan-2-yl)amino)-2-oxoacetyl)-1,2,4-trimethyl-1H-pyrrole-3-carboxamide]: the EC50 in data set [1] was less than 0.05 µM. Also, the 50% cytotoxic concentration (CC50) at 7 days in data set [2] is greater than 30 µM.
As for `CC[C@H](CO)NC(=O)C(=O)c1c(C)c(C(=O)Nc2ccc(F)c(C)c2)c(C)n1C` [Example 140, (R)-N-(4-fluoro-3-methylphenyl)-5-(2-((1-hydroxybutan-2-yl)amino)-2-oxoacetyl)-1,2,4-trimethyl-1H-pyrrole-3-carboxamide], the EC50 in data set [1] is less than 0.05 µM. Moreover, the cytotoxic concentration (CC50) at 7 days in data set [2] was greater than 30 µM.
Take `Cc1cc(NC(=O)c2c(C)c(C(=O)C(=O)N[C@H](C)CCO)n(C)c2C)ccc1F` [Example 141, (R)-N-(4-fluoro-3-methylphenyl)-5-(2-((4-hydroxybutan-2-yl)amino)-2-oxoacetyl)-1,2,4-trimethyl-1H-pyrrole-3-carboxamide]: the EC50 in data set [1] was less than 0.05 µM. In data set [2], the CC50 at 7 days is greater than 30 µM.
In the case of `Cc1cc(NC(=O)c2c(C)c(C(=O)C(=O)N[C@@H](C)CCO)n(C)c2C)ccc1F` [Example 142, (S)-N-(4-fluoro-3-methylphenyl)-5-(2-((4-hydroxybutan-2-yl)amino)-2-oxoacetyl)-1,2,4-trimethyl-1H-pyrrole-3-carboxamide], the EC50 in data set [1] was less than 0.05 µM. Besides, in data set [2], the 50% cytotoxic concentration (CC50) at 7 days was greater than 30 µM.
For `Cc1cc(NC(=O)c2c(C)c(C(=O)C(=O)N[C@H](CO)[C@@H](C)O)n(C)c2C)ccc1F` [Example 143, 5-(2-(((2R,3R)-1,3-dihydroxybutan-2-yl)amino)-2-oxoacetyl)-N-(4-fluoro-3-methylphenyl)-1,2,4-trimethyl-1H-pyrrole-3-carboxamide] the same measures were less than 0.05 µM and greater than 30 µM.
Regarding `Cc1noc([C@H](NC(=O)C(=O)c2c(C)c(C(=O)Nc3ccc(F)c(C)c3)c(C)n2C)C(C)C)n1` [Example 144, (R)-N-(4-fluoro-3-methylphenyl)-1,2,4-trimethyl-5-(2-((2-methyl-1-(3-methyl-1,2,4-oxadiazol-5-yl)propyl)amino)-2-oxoacetyl)-1H-pyrrole-3-carboxamide], the EC50 in data set [1] is less than 0.05 µM. In data set [2], the cytotoxic concentration (CC50) at 7 days is greater than 30 µM.
For the molecule `Cc1noc([C@@H](NC(=O)C(=O)c2c(C)c(C(=O)Nc3ccc(F)c(C)c3)c(C)n2C)C(C)C)n1` [Example 145, (S)-N-(4-fluoro-3-methylphenyl)-1,2,4-trimethyl-5-(2-((2-methyl-1-(3-methyl-1,2,4-oxadiazol-5-yl)propyl)amino)-2-oxoacetyl)-1H-pyrrole-3-carboxamide], in data set [1], the concentration giving a half-maximal response (EC50) was less than 0.05 µM. In data set [2], the CC50 at 7 days was greater than 30 µM.
As to `Cc1cc(NC(=O)c2c(C)c(C(=O)C(=O)N[C@@H]3CCC[C@@H]3O)n(C)c2C)ccc1F` [Example 146, N-(4-fluoro-3-methylphenyl)-5-(2-(((1R,2S)-2-hydroxxycyclopentyl)amino)-2-oxoacetyl)-1,2,4-trimethyl-1H-pyrrole-3-carboxamide], the EC50 in data set [1] is less than 0.05 µM. Besides, the CC50 at 7 days in data set [2] is greater than 30 µM.
